From patent US4654342A, “6-(cyanoguanidinophenyl)pyridazinones as cardiac stimulants” (Smith Kline & French Laboratories Ltd., priority 1984, dated 1987)
Where two headings read alike, the source gives them in different places.

Columns and labels:
right ventricular strips = experiment: Cardiac stimulant activity in vitro, guinea pig ventricular strips (force of contraction)
Method: The compounds of formula (I) and their pharmaceutically acceptable salts are tested for cardiac stimulant activity following a procedure based on that of S. C. Verma and J. H. McNeill (J.Pharm & Exp. Therapeutics, 200, 352-362 (1977)). Guinea pigs (500-700 g) of either sex are sacrificed and the hearts are quickly removed and transferred to a dissecting dish containing oxygenated bathing fluid. While in the bathing medium, the right ventricle is cut into two strips. The strips are each suspended in a 50 ml bath containing Krebs Henseleit solution at 37° C., and the bath is bubbled with 95% oxygen and 5% carbon dioxide. The ventricular strips are electrically stimulated at a frequency of 1.0 Hz, at double the threshold voltage. A resting tension of 1.0 g is applied to the strips and the tension is kept constant by readjustment during an equilibration period of 60 minutes. The bathing fluid is frequently changed during this period. When a steady base line is obtained, a compound under test is added to the bathing fluid and a cumulative concentration response curve is plotted. The compounds for use in the present invention which were tested gave a 50% increase in the force of contraction of the ventricular strips at concentrations in the bathing fluid of less than 10^-4 molar, thus showing that they have activity as positive inotropic agents.

Type (III) PDE = biological target: T1, Type (III) PDE (Cavia porcellus, UniProt H0VIU9); experiment: Phosphodiesterase Type (III) inhibition; assay type: biochemical, guinea pig; details: 1 μm cyclic AMP, 10 minutes; 10 minutes pre-incubation; read-out: IC50, inhibition of `low Km` Type (III) PDE activity
T1 construct: phosphodiesterases (PDE) isolated from guinea pig ventricle; from tissue; host or cells: guinea pig ventricle; forms separated by ion-exchange chromatography
T1 sequence (H0VIU9 1-1132): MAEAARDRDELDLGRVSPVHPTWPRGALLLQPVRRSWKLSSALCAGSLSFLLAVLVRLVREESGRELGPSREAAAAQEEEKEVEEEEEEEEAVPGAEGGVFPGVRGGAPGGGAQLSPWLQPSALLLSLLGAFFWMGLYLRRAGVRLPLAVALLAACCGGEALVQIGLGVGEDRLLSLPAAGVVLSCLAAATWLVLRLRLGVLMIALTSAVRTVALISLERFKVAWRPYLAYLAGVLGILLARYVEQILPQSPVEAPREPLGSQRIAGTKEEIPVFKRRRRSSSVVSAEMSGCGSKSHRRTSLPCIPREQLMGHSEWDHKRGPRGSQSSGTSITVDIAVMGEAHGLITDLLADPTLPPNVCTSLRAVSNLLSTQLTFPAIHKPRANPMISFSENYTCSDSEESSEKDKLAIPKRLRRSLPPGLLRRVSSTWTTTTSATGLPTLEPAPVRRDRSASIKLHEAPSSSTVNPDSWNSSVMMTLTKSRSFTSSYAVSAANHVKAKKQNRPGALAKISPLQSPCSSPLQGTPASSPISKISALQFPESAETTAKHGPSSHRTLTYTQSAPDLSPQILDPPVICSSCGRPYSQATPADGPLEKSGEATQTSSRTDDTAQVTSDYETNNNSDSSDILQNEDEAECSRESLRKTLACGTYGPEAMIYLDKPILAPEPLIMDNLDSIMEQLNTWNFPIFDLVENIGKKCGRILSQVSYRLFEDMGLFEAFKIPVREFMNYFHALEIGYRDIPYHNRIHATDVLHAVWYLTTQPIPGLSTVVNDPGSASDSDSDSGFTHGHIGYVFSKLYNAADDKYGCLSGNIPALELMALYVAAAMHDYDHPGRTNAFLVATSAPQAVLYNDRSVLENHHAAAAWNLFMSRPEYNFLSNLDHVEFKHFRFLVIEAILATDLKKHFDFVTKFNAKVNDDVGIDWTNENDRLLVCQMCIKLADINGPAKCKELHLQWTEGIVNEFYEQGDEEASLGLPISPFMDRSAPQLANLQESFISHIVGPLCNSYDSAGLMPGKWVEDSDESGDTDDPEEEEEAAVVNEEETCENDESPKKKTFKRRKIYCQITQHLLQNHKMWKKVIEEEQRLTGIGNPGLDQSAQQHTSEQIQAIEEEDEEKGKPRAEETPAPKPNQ
Method: The products of Example 13 were tested for selectivity as inhibitors of the phosphodiesterases (PDE) isolated from guinea pig ventricle. Three forms of PDE were isolated by ion-exchange chromatography using the method of Thompson et al, Adv. Nucleotide Research, vol 10, p 69, Brooker et al (Eds), Raven Press, 1979.
In separate experiments with the (-)-isomer, the (+)-isomer and racemic material, following a 10 minutes pre-incubation of the test compound with Type (III) PDE, PDE activity was measured at 1 μm cyclic AMP for 10 minutes (using a modification of the method of Davis and Daly, Journal of Cyclic Nucleotide Research, vol 5, p 65, Raven Press, 1979). IC50 values were obtained for inhibition of `low Km` Type (III) PDE activity: […]

[1] = system: left ventricular dp/dt max; experiment: Cardiac stimulant activity in vivo, anaesthetised cats (left ventricular dp/dt max); parameters: species or system cat; key to Relative Duration: ***: long; **: medium; *: short; details: for positive inotropism, relative to the (+)-isomer: anaesthetised cat screen; for ED50: Felis catus, intravenous, dose to increase left ventricular dp/dt max by 50%, anaesthetised cats; for Relative Duration: estimated in anaesthetised cats following i.v. administration
Description: The dose to increase left ventricular dp/dt max by 50% is given as the ED50.

[2] = system: hindquarters perfusion pressure; experiment: Vasodilator activity, anaesthetised cat hindquarters autoperfused at constant blood flow; assay type: in vivo; details: for vasodilatation, relative to the (+)-isomer: anaesthetised cat screen; for ED15: Felis catus, anaesthetised cat, constant blood flow, read-out: dose to decrease hindquarters perfusion pressure (vasodilatation) by 15%
Method: The compounds of Examples 3, 4, 5 and 8 were tested in autoperfused anaesthetised cat hindquarters (autoperfused at constant blood flow). The doses to decrease hindquarters perfusion pressure (vasodilatation) by 15% are given below: […]

hindquarters blood flow = experiment: Vasodilator activity, anaesthetised rat hindquarters autoperfused at constant blood pressure; assay type: in vivo; details: anaesthetised rat hindquarters screen
Description: The dose to increase hindquarters blood flow by 50% was 4.6 μmol/Kg.

[3] = system: left ventricular dp/dt max; experiment: Cardiac stimulant activity in vivo, conscious dogs (left ventricular dp/dt max); parameters: species or system dog
Method: Oral administration caused positive inotropic responses at doses of 0.25 mg/kg and below. […] Therefore this compound is particularly beneficial with regard to `force-rate` selectivity.

[4] = in vitro, read-out: EC50 value, inotropic activity on guinea pig ventricular strip
[5] = Cavia porcellus, 50% increase in force of contraction, guinea pig ventricular strips, read-out: EC50 × 10^-6 M

Row | Compound | EC50 (right ventricular strips; [4]) | IC50 (Type (III) PDE) | ED50 [1] | Relative Duration [1] | ED15 [2] | EC50 (right ventricular strips; [5]) | other results
1 | CNC(=NC#N)Nc1ccc(C2=NNC(=O)CC2C)cc1 (single isomer, unassigned; (-)) [Example 14, (-)-6-[4-(N^3 -Methyl-N^2-cyanoguanidino)phenyl]-5-methyl-4,5-dihydro-3(2H)-pyridazinone] | 0.71 µM | 1.7 ± 1 µM | – | – | – | – | positive inotropism, relative to the (+)-isomer [1]: more active than the corresponding (+)-isomer of Example 15; vasodilatation, relative to the (+)-isomer [2]: more active than the corresponding (+)-isomer of Example 15; dose to increase hindquarters blood flow by 50% (hindquarters blood flow): 2.4 µM/kg
2 | CC1CC(=O)NN=C1c1ccc(N)cc1 (single isomer, unassigned; (+)) [(+)-isomer, (+)-6-(4-aminophenyl)-5-methyl-4,5-dihydro-3(2H)-pyridazinone] | 11.3 µM | 207 ± 88 µM | – | – | – | – | –
3 | CNC(=NC#N)Nc1ccc(C2=NNC(=O)CC2)cc1 [Example 8, 6-[4-(N^3 -Methyl-N^2-cyanoguanidino)phenyl]-4,5-dihydro3(2H)-pyridazinone] | – | – | 1.6 µmol/kg | ** | 1 mg/kg | – | activation at 31.6 µM (right ventricular strips; Cavia porcellus, at 31.6 × 10^-6 M, read-out: increase in force of contraction (printed in EC50 column)): 40%
4 | CC1CC(=O)NN=C1c1ccc(NC(N)=NC#N)cc1 (stereo not drawn) [Example 6, 6-[4-(N^2 -Cyanoguanidino)phenyl]-5-methyl-4,5-dihydro-3(2H)-pyridazinone] | – | – | 0.7 µmol/kg | *** | – | 1.4 µM | –
5 | CNC(=NC#N)Nc1ccc(C2=NNC(=O)CC2C)cc1 (single isomer, unassigned; (+)) [Example 15, (+)-6-[4-(N^3 -Methyl-N^2-cyanoguanidino)phenyl]-5-methyl-4,5-dihydro-3(2H)-pyridazinone] | 4.3 µM | 11.3 ± 5.4 µM | – | – | – | – | dose to increase hindquarters blood flow by 50% (hindquarters blood flow): 8.6 µM/kg
6 | CC1CC(=O)NN=C1c1ccc(N)cc1 (single isomer, unassigned; (-)) [(-)-isomer, (-)-6-(4-aminophenyl)-5-methyl-4,5-dihydro-3(2H)-pyridazinone] | 1.4 µM | 9.6 ± 3.4 µM | – | – | – | – | positive inotropism, relative to the (+)-isomer [1]: more active than the (+)-isomer; vasodilatation, relative to the (+)-isomer [2]: more active than the (+)-isomer
7 | CCNC(=NC#N)Nc1ccc(C2=NNC(=O)CC2C)cc1 (stereo not drawn) [Example 3, 6-[4-(N^3 -Ethyl-N^2-cyanoguanidino)phenyl]-5-methyl-4,5-dihydro-3(2H)-pyridazinone] | – | – | 0.2 µmol/kg | *** | 0.044 mg/kg | 1.4 µM | –
8 | CCCCNC(=NC#N)Nc1ccc(C2=NNC(=O)CC2C)cc1 (stereo not drawn) [Example 5, 6-[4-(N^3 -Butyl-N^2-cyanoguanidino)phenyl]-5-methyl-4,5-dihydro-3(2H)-pyridazinone] | – | – | 0.31 µmol/kg | ** | 0.13 mg/kg | 8.5 µM | –
9 | CC(C)NC(=NC#N)Nc1ccc(C2=NNC(=O)CC2C)cc1 (stereo not drawn) [Example 4, 6-[4-(N^3 -Isopropyl-N^2-cyanoguanidino)phenyl]-5-methyl-4,5-dihydro-3(2H)-pyridazinone] | – | – | 0.2 µmol/kg | ** | 0.082 mg/kg | 0.8 µM | –
10 | Nc1cc(-c2ccncc2)c[nH]c1=O [Amrinone, reference compound] | – | – | 5.6 µmol/kg | * | – | 15 µM | activity relative to compound of Example 1 [3]: less active; duration relative to compound of Example 1 [3]: of shorter duration
11 | CC1CC(=O)NN=C1c1ccc(N)cc1 (racemic) [racemate, 6-(4-aminophenyl)-5-methyl-4,5-dihydro-3(2H)-pyridazinone] | – | 37 ± 12.9 µM | – | – | – | – | –
